In US10351547B2, “Somatostatin modulators and uses thereof” (priority 2016, dated 2019):
Like-named read-outs stand apart in the source and are kept apart here.

Target: human SSTR2 (Homo sapiens (Human), UniProt P30874)
Assay: Human SSTR2 intracellular cAMP functional assay for agonists (HTRF)
Format: cell-based
Method in brief: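 Cells bearing human SSTR2 exposed to compound for 20 minutes at 37 °C; after lysis, cAMP measured by time-resolved fluorescence (HTRF) and converted via a standard curve. EC50 calculated from cAMP versus compound concentration.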

[1] = CHO-K1 cells stably expressing human SSTR2, NKH477-stimulated cAMP, read-out: EC50 (inhibition of cAMP activities via human SST2R)

Sequence of human SSTR2 (P30874 whole entry): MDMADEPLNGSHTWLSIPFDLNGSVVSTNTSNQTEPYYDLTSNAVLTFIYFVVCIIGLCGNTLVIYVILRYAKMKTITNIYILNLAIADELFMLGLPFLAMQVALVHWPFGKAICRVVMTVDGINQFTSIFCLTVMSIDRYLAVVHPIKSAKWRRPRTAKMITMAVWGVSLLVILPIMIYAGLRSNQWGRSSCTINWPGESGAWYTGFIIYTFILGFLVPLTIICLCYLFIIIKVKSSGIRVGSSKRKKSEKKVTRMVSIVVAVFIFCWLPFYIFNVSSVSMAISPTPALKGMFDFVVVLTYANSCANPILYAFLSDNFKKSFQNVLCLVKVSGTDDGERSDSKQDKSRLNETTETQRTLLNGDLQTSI

| SMILES | EC50 [nM] | EC50 [1] [nM] |
| --- | --- | --- |
| N#Cc1cccc(-c2ccc3ncc(-c4cc(F)cc(CN5CC(F)(F)C5)c4)c(N4CCC(N)CC4)c3c2)c1O [2-71, 3-[4-(4-aminopiperidin-1-yl)-3-{3-[(3,3-difluoroazetidin-1-yl)methyl]-5-fluorophenyl}quinolin-6-yl]-2-hydroxybenzonitrile] | 100 to 1000 |  |
| COCCOc1c(C#N)cccc1-c1ccc2ncc(-c3cc(F)cc(F)c3)c(N3CCC(N)CC3)c2c1 [2-72, 3-[4-(4-aminopiperidin-1-yl)-3-(3,5-difluorophenyl)quinolin-6-yl]-2-(2-methoxyethoxy)benzonitrile] |  | < 10 |
| N#Cc1cccc(-c2ccc3ncc(-c4cc(F)cc(F)c4)c(N4CCC(N)CC4)c3c2)c1OC1COC1 [2-73, 3-[4-(4-aminopiperidin-1-yl)-3-(3,5-difluorophenyl)quinolin-6-yl]-2-(oxetan-3-yloxy)benzonitrile] | 10 to 100 |  |
| NC1CCN(c2c(-c3cc(F)cc(F)c3)cnc3ccc(-c4cncc(F)c4OC4COC4)cc23)CC1 [2-74, 1-[3-(3,5-difluorophenyl)-6-[5-fluoro-4-(oxetan-3-yloxy)pyridin-3-yl]quinolin-4-yl]piperidin-4-amine] | 100 to 1000 |  |
| N#Cc1cnc(N2CCC2)c(-c2ccc3ncc(-c4cc(F)cc(F)c4)c(N4CCC(N)CC4)c3c2)c1 [2-75, 5-[4-(4-aminopiperidin-1-yl)-3-(3,5-difluorophenyl)quinolin-6-yl]-6-(azetidin-1-yl)pyridine-3-carbonitrile] |  | < 10 |
| NC(=O)c1cnc(N2CCC2)c(-c2ccc3ncc(-c4cc(F)cc(F)c4)c(N4CCC(N)CC4)c3c2)c1 [2-76, 5-[4-(4-aminopiperidin-1-yl)-3-(3,5-difluorophenyl)quinolin-6-yl]-6-(azetidin-1-yl)pyridine-3-carboxamide] | 100 to 1000 |  |
| N#Cc1cccc(-c2ccc3ncc(-c4cc(F)cc(F)c4)c(N4CCC(N)CC4)c3c2)c1N [2-77, 2-amino-3-[4-(4-aminopiperidin-1-yl)-3-(3,5-difluorophenyl)quinolin-6-yl]benzonitrile] |  | < 10 |
| COCOc1c(C#N)cccc1-c1ccc2ncc(-c3cc(F)cc(F)c3)c(N3CCC(N)CC3)c2c1 [2-78, 3-[4-(4-aminopiperidin-1-yl)-3-(3,5-difluorophenyl)quinolin-6-yl]-2-(methoxymethoxy)benzonitrile] |  | < 10 |
| CCON=Cc1cc(F)cc(-c2cnc3ccc(-c4cccc(C#N)c4O)cc3c2N2CCC(N)CC2)c1 [2-79, 3-[4-(4-aminopiperidin-1-yl)-3-{3-[(ethoxyimino)methyl]-5-fluorophenyl}quinolin-6-yl]-2-hydroxybenzonitrile] | 100 to 1000 |  |
| O=c1[nH]c2cc(-c3ccc4ncc(-c5cc(F)cc(F)c5)c(N5CC[C@H]6NCCO[C@@H]6C5)c4c3)cc(F)c2[nH]1 [2-80, trans-6-[3-(3,5-difluorophenyl)-4-{octahydro-1H-pyrido[3,4-b]morpholin-6-yl}quinolin-6-yl]-4-fluoro-2,3-dihydro-1H-1,3-benzodiazol-2-one] |  | < 10 |
| CO/N=C/c1cccc(-c2ccc3ncc(-c4cc(F)cc(F)c4)c(N4CCC(N)CC4)c3c2)c1O [2-81, 2-[4-(4-aminopiperidin-1-yl)-3-(3,5-difluorophenyl)quinolin-6-yl]-6-methoxyiminomethyl-phenol] | < 10 |  |
| CC[C@H](N)C1CN(c2c(-c3cc(C)cc(F)c3)cnc3ccc(-c4cc(F)cc(C#N)c4O)cc23)C1 [2-82, 3-(4-{3-[(1S)-1-aminopropyl]azetidin-1-yl}-3-(3-fluoro-5-methylphenyl)quinolin-6-yl)-5-fluoro-2-hydroxybenzonitrile] | 10 to 100 |  |
| COC(=O)Nc1c(F)cc(F)cc1-c1ccc2ncc(-c3cc(F)cc(F)c3)c(N3CCC(N)CC3)c2c1 [2-83, methyl N-{2-[4-(4-aminopiperidin-1-yl)-3-(3,5-difluorophenyl)quinolin-6-yl]-4,6-difluorophenyl}carbamate] |  | < 10 |
| COCOc1c(C#N)cccc1-c1ccc2ncc(-c3cc(F)cc(F)c3)c(N3CC[C@@H](N)[C@H](OC)C3)c2c1 [2-84] |  | < 10 |
